Test results as given in a melting point compilation (Tetko et al.; mined from patent text by program, amines drawn as free bases though some values may be those of a salt).

Row | SMILES | melting point
1 | CC(C)n1nc(-c2sc(C(=O)NC3CC3)nc2-c2ccccc2F)ccc1=O | 134 to 135 °C
2 | COc1ccc(CCNc2nc(Cl)nc(NCCc3ccc(OC)c(OC)c3)n2)cc1OC | 186 °C
3 | CCNC(=O)Cc1ccc2ccn(C3CCN(CCc4ccccc4F)CC3)c2c1 | 147 to 149 °C
4 | CCCCOC(=O)c1cc2cccc(O)c2[nH]1 | 150 to 151 °C
5 | CCCC(Cc1ccc(OCc2ccccc2)cc1)C(=O)O (stereo not given) | 83 to 85 °C
6 | COc1c(C)c(OC(=O)c2c(C)c(C)c(OCCCOc3ccc(C(=O)O)cc3)c(C)c2OC)c(C)c(C)c1C(N)=O | 267 to 268 °C
7 | Cn1nc(C(F)(F)F)n(-c2ccc(I)cc2Cl)c1=S | 117 to 119 °C
8 | O=C(NC(Cc1c[nH]c2ccccc12)C(=O)CCc1cc(C(F)(F)F)cc(C(F)(F)F)c1)OCCc1ccccn1 (stereo not given) | 133 to 135 °C
9 | CCCc1ccc2c(c1)C=Cc1sc(C)nc1C2c1cn(C)c(=O)[nH]c1=S (stereo not given) | 235 °C
10 | Cc1cccc(-c2n[nH]cc2-c2ccc(F)c(-c3ccc(CN4CCOCC4)cn3)c2)n1 | 68 to 70 °C
11 | CC[C@@]1(C)OC(=O)C(c2ccc(F)cc2)=C1c1ccc(S(C)(=O)=O)cc1 | 120 to 121 °C
12 | COc1c(C(C)(C)C)cc(C=O)c(O)c1Br | 123 to 124 °C
13 | Cn1nc(OC(c2ccccc2)c2ccccc2)c(=O)nc1Cl | 182 to 184 °C
14 | COc1ccc(C(=C/C=C/C(=O)O)c2ccc(OC)cc2)cc1 | 187 to 189 °C
15 | CS(=O)(=O)Nc1cccc(C(=O)NCCN2CCC(Oc3ccc(Cl)c(Cl)c3)CC2)c1 | 150 to 151 °C
16 | Cc1nc2sccn2c1C1=NNC(=O)CO1 | 274 to 275 °C
17 | CCN(CC)CCN1c2ccccc2N(C)C(=O)c2ccc(C)nc21 | 91 to 93 °C
18 | Cc1ccc(-c2ccc3c(c2)C=C(C(=O)O)C(C)O3)cc1 (stereo not given) | 190 to 192 °C
19 | CN=c1nc(N)nc2sc3cc(OC)ccc3n12 | 208 to 209 °C
20 | O=C(Oc1ccc([N+](=O)[O-])cc1)C(O)O | 100 to 102 °C
21 | O=c1[nH]c(=O)n(C2CC(O)C(CO)O2)cc1C(Cl)=CI (stereo not given) | 109 to 111 °C
22 | COc1cccc(Cc2cnc(N[N+](=O)[O-])[nH]c2=O)c1 | 178 to 179 °C
23 | CN(CCOc1ccc(C=O)cc1)c1nc2ccccc2o1 | 97 to 98 °C
24 | COc1ccc(-c2cc(=S)n(Cc3ccncc3)nc2-c2ccc(OC)cc2)cc1 | 160 °C
25 | NCCCN1CCN(C(c2ccccc2)c2ccccc2)CC1 | 62 to 63 °C

Row | SMILES | melting point
26 | O=C(Nc1ccccc1S(=O)(=O)c1ccccc1)N[C@@H](Cc1ccc(NCc2c(Cl)cccc2Cl)cc1)C(=O)O | 116 °C
27 | O=C(O)c1ccc(OCC(O)c2cc3cc(Cl)ccc3o2)cc1 (stereo not given) | 157 to 159 °C
28 | CCCCCCOc1ccc(-c2cc(C=O)ccc2C=O)cc1 | 44.5 to 45.5 °C
29 | Fc1ccc(-c2nc[nH]c2-c2ccc(F)cc2)cc1 | 234 to 236 °C
30 | O=C(O)CCSC(c1ccccc1)(c1ccccc1)c1ccccc1 | 205 to 208 °C
31 | N[C@H]1CCCC[C@@H]1Nc1ccnc2cc(Cl)ccc12 | 160 °C
32 | CC(C)Cn1c(CN2C(=O)c3ccccc3C2=O)c(OCCCC(F)(F)F)c2cc(OCc3ccccc3)ccc2c1=O | 131 to 132 °C
33 | COc1cc2c(cc1OC)N(C(=O)c1ccc(-c3ccccc3C(F)(F)F)c(C)c1)Cc1ccc(C(=O)N(CCO)CCO)n1C2 | 130 to 132 °C
34 | CC(=O)Nc1ccc2c(c1)C(=O)N(c1ccc3c(ccn3C)c1)C2 | 275 to 280 °C
35 | COc1cc(CCCO)ccc1OCc1coc(/C=C/c2ccccc2)n1 | 95 to 96 °C
36 | C[C@]1(CN2CCN(C(=O)OCC=Cc3ccc(C(F)(F)F)cc3)CC2)Cn2cc([N+](=O)[O-])nc2O1 | 132 to 133 °C
37 | O=c1c2cc([N+](=O)[O-])ccc2cc2n1CCCS2(=O)=O | 242 to 244 °C
38 | CCC(O)(CC)c1csc(-c2cccc(OCc3ccc(CO)c(CO)c3)c2)c1 | 47 °C
39 | COc1ccc(CCNCC(O)CO)cc1OC (stereo not given) | 80 to 82 °C
40 | O=c1c(Br)cc(-c2ccncn2)cn1Cc1ccccc1 | 189 to 192 °C
41 | COc1cc2c(cc1Br)CC(=O)NN=C2c1ccc([N+](=O)[O-])cc1 | 245 to 256 °C
42 | CC(c1oc2ccc(Br)cc2c(=O)c1-c1ccccc1F)n1cnc2c(N)ncnc21 (stereo not given) | 256 to 258 °C
43 | CCOC(=O)C1=C(NC(=O)Nc2cc(OC(C)C)c(Cl)cc2F)CCC1 | 166 to 169 °C
44 | Cc1[nH]c(=O)sc1C(=O)c1ccc(N(C)C)cc1 | 224 to 226 °C
45 | Cc1cc(NC(=O)C(=O)N2C(C)CCCC2C)cc(C)c1S(=O)(=O)C[N+](=O)[O-] (stereo not given) | 192 to 193 °C
46 | Cc1nc2c(N)nc3ccccc3c2n1CCCNC(=O)C1CCCCC1 | 234 to 235 °C
47 | CC(Oc1ccc(Oc2ccc(Cl)cc2)cc1)C(=O)N1CCCO1 (stereo not given) | 98 to 100 °C
48 | CS(=O)(=O)c1ccc(-c2ccccc2[N+](=O)[O-])cc1 | 178 °C
49 | NC(c1ccccc1)c1ccc(O)cc1 (stereo not given) | 113 to 115 °C
50 | CCCCCCCCCCOc1ccc(CO)cc1 | 54 to 55 °C

Row | SMILES | melting point
51 | CCc1ccccc1-c1cccc(-n2cnc(-c3nc(C)no3)c2)c1 | 150 to 156 °C
52 | COC(=O)CCCOc1cc([N+](=O)[O-])c(C(C)NC(=O)C(F)(F)F)cc1OC (stereo not given) | 156 to 157 °C
53 | O=C(NC(Cc1ccc(-c2cccc3ccccc23)cc1)C(=O)O)C(CS)Cc1ccccc1 (stereo not given) | 158 °C
54 | CNC(=S)Nc1ccc(Cc2cc(C)c(C(=O)c3ccc(Cl)cc3)n2C)nc1 | 135 °C
55 | COc1ccc(N2CCN(c3c(C)c(C)c4c(c3C)C(Nc3ccccc3)C(C)(C)O4)CC2)cc1 (stereo not given) | 90 to 94 °C
56 | CC(C)(C)OC(=O)N1Cc2c(Br)sc(Br)c2C1 | 144 to 145 °C
57 | c1ccc(Cc2ccccc2C2CCN(CCCOc3ccccc3)CC2)cc1 | 139 to 140 °C
58 | COc1cccc(CNC(=O)c2nc3sc(C(N)=O)c(C)c3c(=O)[nH]2)c1 | 258 °C
59 | O=C(O)C=C1CCC(n2nc(-c3c(-c4ccccc4)nn4ccccc34)ccc2=O)CC1 (stereo not given) | 188 to 190 °C
60 | Cn1cc(-c2ccccc2)c(=O)c(-c2cccc(F)c2)c1 | 134 °C
61 | N#Cc1cc(NCc2ccncc2)n(-c2c(Cl)cc(C(F)(F)F)cc2Cl)n1 | > 300 °C
62 | CN(CCCN)CCCNc1ccc2ncn3c4ccccc4c(=O)c1c23 | 97 to 99 °C
63 | N#Cc1cccc(CN2CCc3ccccc32)c1 | 54.5 to 56 °C
64 | COc1ccc(C(=O)Nc2ccc(F)cc2)cc1Nc1cc(C)cc(C)c1 | 199 to 200 °C
65 | O=C(CN1CCN(CC(=O)N2CCC3(CC2)Cn2cc([N+](=O)[O-])nc2O3)CC1)Nc1ccc(C(F)(F)F)cc1 | 133 to 135 °C
66 | COC(=O)C(C#N)c1nc(-c2c(F)cccc2F)cs1 (stereo not given) | 219 to 224 °C
67 | Nc1cccc(-c2ccc(CCN3CCc4ccccc4C3)cc2)n1 | 130 to 132 °C
68 | COC(=O)C(CSSc1ccccc1C(=O)Nc1ccc(S(N)(=O)=O)cc1)NC(C)=O (stereo not given) | 138 to 140 °C
69 | COc1cc2nc(N3CCN(c4nc5cccccc-5n4)CC3)nc(N)c2cc1OC | 189 to 193 °C
70 | CN(C)C=Nc1ncc(S(=O)(=O)NC(C)(C)C)c(O)n1 | 258 to 261 °C
71 | Cc1c(Cl)c(Oc2ncc(C(F)(F)F)cc2Cl)nn1C(=O)NC(C)C | 57 to 59 °C
72 | O[C@@H]1CN(CC2CC2)CC[C@@H]1c1ccccc1 (relative stereo) | 94 to 97 °C
73 | CN(C)CCOc1c2c(nc3ccccc13)C(C)(C)OC2 | 92 to 93 °C
74 | Nc1c(-c2c[nH]nn2)c(=O)oc2ccccc12 | 265 to 268 °C
75 | COC(=O)c1ccc2oc(CCl)c(C)c2c1 | 114 to 115 °C

Row | SMILES | melting point
76 | NCC1Cc2cc(C(F)(F)F)cc(-c3ccsc3)c2O1 (stereo not given) | > 250 °C
77 | CCCOc1ccc(-c2ccc(Cl)nn2)cc1OC | 132 °C
78 | CC1ON(C)C(=O)C1=Cc1cc(C(C)(C)C)c(O)c(C(C)(C)C)c1 (stereo not given) | 147 to 150 °C
79 | COC(=O)c1ccc(COC2OC(CO)C(O)C(O)C2O)o1 (stereo not given) | 72 °C
80 | CCCCCCC(Oc1ccc(NC(=O)NC(=O)c2c(Cl)cccc2Cl)cc1)c1ccccc1 (stereo not given) | 146 to 149 °C
81 | CNc1nc(Br)cc(Sc2ccccc2)n1 | 122 to 124 °C
82 | O=C1Cc2cccc(-c3ccccc3)c2C1 | 133 to 136 °C
83 | CC(=O)OC1=C([C@H]2CC[C@H](c3ccc(Cl)cc3)CC2)C(=O)c2ccccc2C1=O | 149 to 152 °C
84 | COc1ccc2cc(C=CC(C)=O)ccc2c1 | 114 to 116 °C
85 | CC(C)(C)OC(=O)NCOc1ccccc1C(=O)OCC#N | 144 to 146 °C
86 | C=Cc1ccc(COc2ccc(CO)cc2)cc1 | 110 to 112 °C
87 | O=c1[nH]c2ccccc2n1CCNCc1ccc(CN2CCCCC2)o1 | 83 to 85 °C
88 | COc1ccc2c(c1)Sc1c(cc(OC)c(OC)c1Br)N2C | 135 to 137 °C
89 | COCc1c(-c2ccncc2)[nH]c(-c2ccncc2)c1C(=O)OC | 97 to 99 °C
90 | COc1ccc(-n2cncc2-c2ccccc2)cc1 | 106 °C
91 | O=S(=O)(c1ccc(Cl)c(CBr)c1Cl)N1CCCC1 | 115 °C
92 | O=C(O)c1c2c(nc3ccc(F)cc13)-c1ccc(-c3cccs3)cc1CCC2 | > 300 °C
93 | Cc1cc(F)ccc1-c1nc(OCCNC(=O)OC(C)(C)C)nc2c1ccc(=O)n2-c1c(F)cccc1F | 103 to 105 °C
94 | N#CNC(=NCCN1CCC(C(=O)c2ccc(F)cc2)CC1)N1CCCCC1 | 139 to 141 °C
95 | CNC(=O)Cc1cccc2c(=O)cc(C3=CCCCC3)oc12 | 213 to 214 °C
96 | O=C(CCc1ccccc1)N[C@H](Cc1ccc(C(F)(F)F)cc1)[C@@H](O)c1ccoc1 (racemic) | 134 to 135 °C
97 | Cc1ccc2oc(Br)c(-c3ccccc3)c2c1 | 52 to 57 °C
98 | COc1ccc(C2(CCN3CCC(C(=O)c4nc5ccccc5n4Cc4ccc(F)cc4)CC3)CCN(C(=O)c3ccccc3)C2)cc1OC (stereo not given) | 42 to 44 °C
99 | COc1cc(C#N)ccc1OCCCN1CCC(c2noc3cc(F)ccc23)CC1 | 107 to 108 °C
100 | C=CCC1(SC(C)=O)C(C)(C)c2ccccc2C1(C)C | 65 to 67 °C
